Common to all, as to format: cell-based
In assay [1] the target is T1, hGLP-1R (Homo sapiens, UniProt P43220). Kind of assay: Functional cAMP activity in the presence of 1% HSA. As to conditions: read-out: cAMP Rel EC50, hGLP-1R.
Assay [2] deals with human GcgR (Homo sapiens, UniProt P47871). Kind of assay: Functional cAMP activity in the presence of 1% HSA. Particulars: read-out: cAMP Rel EC50, hGcgR.
Assay [3] addresses T2, hGIPR (Homo sapiens, UniProt P48546).
T2 sequence (P48546 22-466): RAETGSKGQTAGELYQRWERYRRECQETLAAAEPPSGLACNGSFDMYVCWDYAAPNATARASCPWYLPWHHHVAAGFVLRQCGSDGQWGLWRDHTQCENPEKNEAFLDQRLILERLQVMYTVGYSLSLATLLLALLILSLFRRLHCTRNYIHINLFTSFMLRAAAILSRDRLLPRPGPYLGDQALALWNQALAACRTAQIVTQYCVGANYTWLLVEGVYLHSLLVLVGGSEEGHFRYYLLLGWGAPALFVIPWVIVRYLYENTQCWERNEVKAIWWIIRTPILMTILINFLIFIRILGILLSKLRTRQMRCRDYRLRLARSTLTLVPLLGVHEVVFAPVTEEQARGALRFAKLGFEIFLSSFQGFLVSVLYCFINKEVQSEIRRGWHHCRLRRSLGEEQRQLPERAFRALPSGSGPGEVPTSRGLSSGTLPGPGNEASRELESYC
Kind of assay: Functional cAMP activation in the presence of 0.1% casein (no HSA). Particulars: read-out: Relative cAMP EC50, hGIPR.

In assay [4] the target is T1, hGLP-1R. The assay is described as above. Particulars: read-out: Relative cAMP EC50, hGLP-1R.
Assay [5] addresses hGcgR (Homo sapiens, UniProt P47871). The description is as above. Particulars: read-out: Relative cAMP EC50, hGcgR.
For assay [6], the target named is human GLP1-R (Homo sapiens, UniProt P43220). Kind of assay: GLP1-R internalization assay in HEK293 cells.
The target in assay [7] is T2, hGIPR. Kind of assay: Functional cAMP activity in the presence of 1% HSA. Particulars: read-out: cAMP Rel EC50, hGIPR.
[8] abbreviates: in the presence of 0.1% casein (no HSA), geometric mean.
Where [9] appears, read: 0.1% casein, no HSA, geometric mean.

14 compounds from patent US20240270821A1, “GIP/GLP1/GCG TRI-RECEPTOR AGONISTS AND USES THEREOF” (priority 2023, published 2024) can be followed below.

Like-named read-outs stand apart in the source and are kept apart here. Starred links: 1 amine or outer side, 2 acyl side, 3 side chain; linkers in the order of their positions; H or OH if unused. Non-standard residues stand in square brackets, D forms with d. Groups on a side chain read outwards from the residue. No end group written: not given here. *: point of attachment. C18 diacid = O=C(O)CCCCCCCCCCCCCCCCC(=O)*; αMePhe(2-F) = C[C@](N)(Cc1ccccc1F)C(=O)O; γGlu = O=C(O)[C@H](CCC(=O)[*:2])N[*:1]; NMeY = CN[C@@H](Cc1ccc(O)cc1)C(=O)O; αMe4Pal = C[C@](N)(Cc1ccncc1)C(=O)O; αMeY = C[C@](N)(Cc1ccc(O)cc1)C(=O)O; 4Pal = N[C@@H](Cc1ccncc1)C(=O)O; αMeL = CC(C)C[C@](C)(N)C(=O)O; αMeS = C[C@](N)(CO)C(=O)O; Orn = NCCC[C@H](N)C(=O)O; AEEA = NCCOCCOCC(=O)O; Aib = CC(C)(N)C(=O)O
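Throughout, for Relative cAMP EC50, hGIPR: intracellular cAMP rise after 30 min at 37 °C read by HTRF against a standard curve, scaled between buffer alone (0%) and top control ligand concentration (100%), four-parameter fit.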
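Throughout, for Relative cAMP EC50, hGLP-1R: intracellular cAMP rise after 30 min at 37 °C read by HTRF, normalized between buffer only (0%) and maximal control ligand (100%), four-parameter variable-slope fit.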
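Throughout, for Relative cAMP EC50, hGcgR: intracellular cAMP rise after 30 min at 37 °C, read by HTRF against a cAMP standard curve, scaled from buffer only (0%) to maximal control ligand response (100%).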

T1 sequence (P43220 24-463): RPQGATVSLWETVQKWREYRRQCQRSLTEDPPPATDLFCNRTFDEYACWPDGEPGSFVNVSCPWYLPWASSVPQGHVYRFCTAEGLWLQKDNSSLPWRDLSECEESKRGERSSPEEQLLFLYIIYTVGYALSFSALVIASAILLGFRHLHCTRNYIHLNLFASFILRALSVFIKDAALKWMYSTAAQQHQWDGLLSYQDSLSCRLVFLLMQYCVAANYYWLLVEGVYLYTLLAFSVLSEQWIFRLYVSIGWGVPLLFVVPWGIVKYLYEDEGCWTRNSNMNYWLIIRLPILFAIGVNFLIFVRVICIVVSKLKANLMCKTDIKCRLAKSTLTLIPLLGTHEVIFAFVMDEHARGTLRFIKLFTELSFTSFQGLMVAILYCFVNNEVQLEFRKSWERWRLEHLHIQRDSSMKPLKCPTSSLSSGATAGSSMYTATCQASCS
human GcgR, sequence (P47871 26-477): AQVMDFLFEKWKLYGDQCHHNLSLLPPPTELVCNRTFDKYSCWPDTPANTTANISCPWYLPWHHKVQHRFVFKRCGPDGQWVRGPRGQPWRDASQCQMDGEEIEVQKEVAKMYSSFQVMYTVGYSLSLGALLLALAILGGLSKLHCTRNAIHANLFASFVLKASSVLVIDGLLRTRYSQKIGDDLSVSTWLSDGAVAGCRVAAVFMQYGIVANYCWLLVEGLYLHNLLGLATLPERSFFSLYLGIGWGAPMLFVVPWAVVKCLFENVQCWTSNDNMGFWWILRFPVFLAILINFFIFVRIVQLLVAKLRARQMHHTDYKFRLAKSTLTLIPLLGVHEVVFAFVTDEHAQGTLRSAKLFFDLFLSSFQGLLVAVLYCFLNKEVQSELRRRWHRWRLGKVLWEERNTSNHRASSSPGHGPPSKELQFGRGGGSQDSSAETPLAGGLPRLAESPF
hGcgR, sequence (P47871 26-477): as above
human GLP1-R, sequence (P43220 24-463): as the sequence (P43220 24-463) above

In the case of `CC[C@H](C)[C@H](NC(=O)[C@H](Cc1ccccc1)NC(=O)[C@H](C)NC(=O)C(C)(C)NC(=O)[C@H](CCC(N)=O)NC(=O)[C@H](C)NC(=O)[C@H](CCCCNC(=O)COCCOCCNC(=O)CC[C@H](NC(=O)CCCCCCCCCCCCCCCCC(=O)O)C(=O)O)NC(=O)[C@H](CCCCN)NC(=O)[C@H](CC(=O)O)NC(=O)[C@H](CC(C)C)NC(=O)[C@](C)(CC(C)C)NC(=O)[C@H](CCCN)NC(=O)[C@H](CO)NC(=O)[C@H](Cc1ccncc1)NC(=O)[C@H](CC(=O)O)NC(=O)[C@H](CO)NC(=O)[C@@H](NC(=O)[C@H](Cc1ccccc1)NC(=O)[C@@H](NC(=O)CNC(=O)[C@H](CCC(N)=O)NC(=O)C(C)(C)NC(=O)[C@@H](N)Cc1ccc(O)cc1)[C@@H](C)O)[C@@H](C)O)C(=O)N[C@@H](CCC(=O)O)C(=O)N[C@@H](Cc1ccc(O)cc1)C(=O)N[C@@H](CC(C)C)C(=O)N[C@@H](CC(C)C)C(=O)N[C@@H](C)C(=O)NCC(=O)NCC(=O)N1CCC[C@H]1C(=O)N[C@@H](CO)C(=O)N[C@@H](CO)C(=O)NCC(=O)N[C@@H](C)C(=O)N1CCC[C@H]1C(=O)N1CCC[C@H]1C(=O)N1CCC[C@H]1C(=O)N[C@@H](CO)C(=O)NCC(=O)N[C@@H](CCC(=O)O)C(N)=O` [Example 112], the EC50 in assay [1] worked out at 892 nM; in assay [2], 1810 nM; in assay [3] (setting [8]), 0.233 nM; in assay [4] (setting [8]), 5.77 nM; in assay [5] (setting [8]), 11 nM; in assay [6] (HEK293 cells expressing SNAP-GLP-1R, read-out: GLP1R Internalization EC50), 30.1 nM. Also, the “Internalization % TOP” value in assay [6] (normalized to maximum concentration of GLP-1 (100%)) was 59.1%.
For “Y[Aib]QGT[αMePhe(2-F)]TSD[4Pal][αMeS]I[αMeL]LD[Orn]K([γGlu-γGlu-C18 diacid])AQ[Aib][Orn]FI[dE][αMeY]LSEGGPSSGEPPPSGSEE-NH2 [Example 569]”, the EC50 in assay [7] was 12.4 nM; in assay [1], 84.4 nM; in assay [2], 697 nM; in assay [3] it was 0.199 nM; in assay [4], 1.12 nM; in assay [5], 4.34 nM.
Take “Y[Aib]QGT[αMePhe(2-F)]TSD[4Pal][αMeS]I[αMeL]LD[Orn]K([γGlu-γGlu-C18 diacid])AQ[Aib][Orn]FI[dE][αMeY]LTEGGPSSGEPPPEGTEE-NH2 [Example 597]”: the EC50 in assay [7] amounted to 2.38 nM; in assay [1], 36.4 nM; in assay [2], 329 nM; in assay [3], 0.0643 nM; in assay [4], 0.6 nM; in assay [5] it was 5.2 nM.
As for “Y[Aib]QGT[αMePhe(2-F)]TSD[4Pal][αMeS]I[αMeL]LD[Orn]K([γGlu-γGlu-C18 diacid])AQ[αMe4Pal]EFI[dE][αMeY]LIEGGPSSGAPPPEGGGEEE-NH2 [Example 1221]”, the EC50 in assay [7] came out at 0.814 nM; in assay [1], 57.8 nM; in assay [2] it was 185 nM; in assay [3] (setting [9]) it was 0.0111 nM; in assay [4] (setting [9]) it was 0.839 nM; in assay [5] (setting [9]), 2.27 nM.
“Y[Aib]QGT[αMePhe(2-F)]TSD[4Pal][αMeS]I[αMeL]LD[Orn]K([γGlu-γGlu-C18 diacid])AQ[αMe4Pal]EFI[dE][αMeY]LIEGGPSSGAPPPSGE-NH2 [Example 1150]”: the EC50 in assay [7] amounted to 0.583 nM; in assay [1], 30 nM; in assay [2], 161 nM; in assay [3] (setting [8]), 0.0069 nM; in assay [4] (setting [8]) it was 0.278 nM; in assay [5] (setting [8]), 1.17 nM.
“Y[Aib]QGT[αMePhe(2-F)]TSD[4Pal][αMeS]I[αMeL]LD[Orn]K([γGlu-γGlu-C18 diacid])AQ[αMe4Pal]EFI[dE][αMeY]LIEGGPSSGEPPPEGGGE-NH2 [Example 762]”: the EC50 worked out at 0.692 nM in assay [7]; 27.6 nM in assay [1]; 119 nM in assay [2]; 0.00882 nM in assay [3]; 0.273 nM in assay [4]; 3.09 nM in assay [5].
Regarding “Y[Aib]QGT[αMePhe(2-F)]TSD[4Pal][αMeS]I[αMeL]LD[Orn]K([γGlu-γGlu-C18 diacid])AQ[αMe4Pal]EFI[dE][αMeY]LVEGGPSSGAPPPSGSE-NH2 [Example 1162]”, the EC50 in assay [7] amounted to 0.656 nM; in assay [1], 34.5 nM; in assay [2] it was 199 nM; in assay [3] (setting [8]), 0.00818 nM; in assay [4] (setting [8]) it was 0.372 nM; in assay [5] (setting [8]), 2.55 nM.
Regarding “Y[Aib]QGT[αMePhe(2-F)]TSD[4Pal][αMeS]I[αMeL]LD[Orn]K([γGlu-γGlu-C18 diacid])AQ[αMe4Pal]EFI[dE][αMeY]LVEGGPSSGEPPPSGSEE-NH2 [Example 740]”, the EC50 in assay [7] was determined as 0.629 nM; in assay [1] it was 29.7 nM; in assay [2] it was 181 nM; in assay [3], 0.012 nM; in assay [4], 0.453 nM; in assay [5], 5.34 nM.
As to “Y[Aib]QGT[αMePhe(2-F)]TSD[4Pal][αMeS]I[αMeL]LD[Orn]QAQ[αMe4Pal]EFI[dE][αMeY]LIEGGPSSGAPPPSGGGE-NH2 [Example 1234]”, the EC50 in assay [7] is 0.011 nM; in assay [1], 1.15 nM; in assay [2], 11.7 nM; in assay [3] (setting [9]), 0.0135 nM; in assay [4] (setting [9]), 1.17 nM; in assay [5] (setting [9]), 11.6 nM.
With “Y[Aib]QGT[αMePhe(2-F)]TSD[4Pal][αMeS]I[αMeL]LD[Orn][Orn]([AEEA-γGlu-C18 diacid])AQ[αMe4Pal]EFI[dE][αMeY]LVEGGPSSGAPPPSGS-NH2 [Example 1210]”, the EC50 in assay [7] came to 0.635 nM; in assay [1] it was 38.1 nM; in assay [2], 288 nM; in assay [3] (setting [9]), 0.00704 nM; in assay [4] (setting [9]), 0.375 nM; in assay [5] (setting [9]), 2.25 nM.
As to “Y[Aib]QGT[αMePhe(2-F)]TSD[4Pal][αMeS]I[αMeL]LE[Orn]K([AEEA-γGlu-C18 diacid])AQ[αMe4Pal]EFI[dE][αMeY]LVEGGPSSGAPPPSGS-NH2 [Example 768]”, the EC50 in assay [7] is 2.65 nM; in assay [1] it was 33.2 nM; in assay [2] it was 2270 nM; in assay [3], 0.0294 nM; in assay [4] it was 0.259 nM; in assay [5], 10.3 nM.
Regarding “Y[Aib]Q[dA]T[αMePhe(2-F)]TSD[4Pal]SI[αMeL]LD[Orn]K([AEEA-γGlu-C18 diacid])AQ[αMe4Pal][Orn]FI[dE][αMeY]LIEGGPSSGEPPPESE-NH2 [Example 765]”, the EC50 in assay [7] stood at 44.6 nM; in assay [1], 26.1 nM; in assay [2] it was 111 nM; in assay [3] it was 0.0642 nM; in assay [4], 0.25 nM; in assay [5], 0.952 nM.
As to “Y[Aib]Q[dA]T[αMePhe(2-F)]TSD[4Pal][αMeS]I[αMeL]LD[Orn]K([AEEA-γGlu-C18 diacid])AQ[Aib]EFI[dE][αMeY]LIEGGPSSGAPPPSGS-NH2 [Example 1203]”, the EC50 was 8.5 nM in assay [7]; 38.9 nM in assay [1]; 436 nM in assay [2]; 0.0774 nM in assay [3] (setting [9]); 0.292 nM in assay [4] (setting [9]); 2.58 nM in assay [5] (setting [9]).
With “[NMeY][Aib]QGTFTSD[4Pal][αMeS]I[αMeL]LD[Orn]K([dE-γGlu-C18 diacid])AQ[αMe4Pal]QFIQ[αMeY]LIE[Aib]GPSSGAPPPSGGGE-NH2 [Example 1135]”, the EC50 in assay [7] was determined as 0.864 nM; in assay [1], 63.2 nM; in assay [2], 142 nM; in assay [3] (setting [8]), 0.0126 nM; in assay [4] (setting [8]), 0.746 nM; in assay [5] (setting [8]), 1.76 nM.
